Experimental findings from patent US10392368B2, “Pyrazolo and triazolo bicyclic compounds as JAK kinase inhibitors” (THERAVANCE BIOPHARMA R&D IP, LLC, priority 2017, dated 2019) are described below.

For one series, the target named is T1, JAK1 (Homo sapiens, UniProt P23458).
T1 construct: GST; purchased Life Technologies
In words: Biochemical JAK1 kinase assay (LanthaScreen). As to conditions: read-out: JAK 1 (pKi) (converted). Summed up:
(§1)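 GST-JAK + GFP-STAT1 peptide + cpd, 1 h preinc RT; ATP start, 1% DMSO, 1 h RT; stop 10 mM EDTA + 2 nM Tb-anti-pSTAT1; 1 h; TR-FRET 520/495. % inhib vs DMSO/background → IC50 (4-PL) → pKi (Cheng-Prusoff).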
Background: In TR-FRET formats the signal depends on donor and acceptor labels being close together.

Series [1] can be described thus: Colon and plasma mouse pharmacokinetics. The series is classed as in vivo. To be noted: mouse, colon tissue / plasma; male Balb/c mice, 10 mg/kg PO; 0.5, 2 and 6 hours; read-out: colon to plasma ratio (colon AUC to plasma AUC). On the procedure:
6 male Balb/c mice were administered 10 mg/kg of compound in 1% HPMC+0.1% Tween-80 by PO administration. At 0.5, 2 and 6 hours after dose administration, animals were anesthetized, and terminal blood samples were collected by cardiac puncture, followed by collection of colon contents and colon tissue.
Blood samples were collected into K2EDTA and stored on wet ice until processed to plasma by centrifugation (12000 rpm at 4° C.). Plasma samples were transferred to cluster tubes and placed on dry ice prior to freezer storage. The colon contents from each animal were collected at each terminal blood collection time point. The colon tissues were flushed with saline and patted dry. The colon and colon content tissues were homogenized using sterile water containing 0.1% formic acid 9:1 (water:tissue, v/w). The homogenized tissues and colon contents were transferred to cluster tubes and placed on dry ice prior to freezer storage. All samples were analyzed using LC/MS/MS against analytical standards.
The composite pharmacokinetic parameters of the compounds were determined by non-compartmental analysis using Phoenix WinNonlin Version 6 (Certara, St. Louis, Mo.) and using mean values from 2 animals/time point. For plasma concentrations below the quantification limit (BQL), the lowest concentration measurable or the BLOQ (below limit of quantification) was used.
A colon to plasma ratio was determined as the ratio of the colon AUC to the plasma AUC.

The target of a further series is T2, JAK3 (Homo sapiens, UniProt P52333).
T2 sequence (P52333 1-1124): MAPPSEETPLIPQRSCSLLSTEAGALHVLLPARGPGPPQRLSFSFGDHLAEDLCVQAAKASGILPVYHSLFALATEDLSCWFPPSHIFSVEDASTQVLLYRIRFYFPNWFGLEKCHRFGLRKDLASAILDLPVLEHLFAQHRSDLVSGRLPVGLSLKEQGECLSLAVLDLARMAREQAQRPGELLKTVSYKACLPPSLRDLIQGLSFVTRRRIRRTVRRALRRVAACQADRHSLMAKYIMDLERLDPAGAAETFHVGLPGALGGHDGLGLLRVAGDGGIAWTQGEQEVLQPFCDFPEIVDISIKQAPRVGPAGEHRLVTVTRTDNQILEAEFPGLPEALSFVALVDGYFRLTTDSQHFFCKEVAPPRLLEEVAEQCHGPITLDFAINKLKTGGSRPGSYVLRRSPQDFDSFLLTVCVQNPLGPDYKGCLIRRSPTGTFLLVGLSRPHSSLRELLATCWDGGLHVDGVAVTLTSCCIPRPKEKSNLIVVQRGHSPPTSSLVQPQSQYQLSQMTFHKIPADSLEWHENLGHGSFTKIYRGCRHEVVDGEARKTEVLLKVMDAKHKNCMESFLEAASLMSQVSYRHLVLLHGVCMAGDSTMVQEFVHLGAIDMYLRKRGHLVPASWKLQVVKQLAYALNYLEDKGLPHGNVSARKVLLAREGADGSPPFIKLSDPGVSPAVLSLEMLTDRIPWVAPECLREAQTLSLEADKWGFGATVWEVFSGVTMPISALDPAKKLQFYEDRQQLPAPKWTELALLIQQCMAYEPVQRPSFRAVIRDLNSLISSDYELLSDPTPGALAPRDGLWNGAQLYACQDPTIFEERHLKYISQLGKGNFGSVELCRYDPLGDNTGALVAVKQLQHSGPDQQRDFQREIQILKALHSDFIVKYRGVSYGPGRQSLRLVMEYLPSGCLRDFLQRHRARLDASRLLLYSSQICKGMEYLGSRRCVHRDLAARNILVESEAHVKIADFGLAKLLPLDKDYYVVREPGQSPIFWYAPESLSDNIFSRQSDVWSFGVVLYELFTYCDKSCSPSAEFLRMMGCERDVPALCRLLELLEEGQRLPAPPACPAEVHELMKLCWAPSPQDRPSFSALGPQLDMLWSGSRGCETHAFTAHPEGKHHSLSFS
As to the kind of experiment: Biochemical JAK3 kinase assay (LanthaScreen). More on the design: GST; purchased Life Technologies. To be noted: for Ki: read-out: JAK 3 (pKi) (converted); for JAK3 (pKi)-JAK1 (pKi): selectivity: difference of pKi JAK3 and pKi JAK1. The procedure, abridged:
as §1

T1 sequence (P23458 whole entry): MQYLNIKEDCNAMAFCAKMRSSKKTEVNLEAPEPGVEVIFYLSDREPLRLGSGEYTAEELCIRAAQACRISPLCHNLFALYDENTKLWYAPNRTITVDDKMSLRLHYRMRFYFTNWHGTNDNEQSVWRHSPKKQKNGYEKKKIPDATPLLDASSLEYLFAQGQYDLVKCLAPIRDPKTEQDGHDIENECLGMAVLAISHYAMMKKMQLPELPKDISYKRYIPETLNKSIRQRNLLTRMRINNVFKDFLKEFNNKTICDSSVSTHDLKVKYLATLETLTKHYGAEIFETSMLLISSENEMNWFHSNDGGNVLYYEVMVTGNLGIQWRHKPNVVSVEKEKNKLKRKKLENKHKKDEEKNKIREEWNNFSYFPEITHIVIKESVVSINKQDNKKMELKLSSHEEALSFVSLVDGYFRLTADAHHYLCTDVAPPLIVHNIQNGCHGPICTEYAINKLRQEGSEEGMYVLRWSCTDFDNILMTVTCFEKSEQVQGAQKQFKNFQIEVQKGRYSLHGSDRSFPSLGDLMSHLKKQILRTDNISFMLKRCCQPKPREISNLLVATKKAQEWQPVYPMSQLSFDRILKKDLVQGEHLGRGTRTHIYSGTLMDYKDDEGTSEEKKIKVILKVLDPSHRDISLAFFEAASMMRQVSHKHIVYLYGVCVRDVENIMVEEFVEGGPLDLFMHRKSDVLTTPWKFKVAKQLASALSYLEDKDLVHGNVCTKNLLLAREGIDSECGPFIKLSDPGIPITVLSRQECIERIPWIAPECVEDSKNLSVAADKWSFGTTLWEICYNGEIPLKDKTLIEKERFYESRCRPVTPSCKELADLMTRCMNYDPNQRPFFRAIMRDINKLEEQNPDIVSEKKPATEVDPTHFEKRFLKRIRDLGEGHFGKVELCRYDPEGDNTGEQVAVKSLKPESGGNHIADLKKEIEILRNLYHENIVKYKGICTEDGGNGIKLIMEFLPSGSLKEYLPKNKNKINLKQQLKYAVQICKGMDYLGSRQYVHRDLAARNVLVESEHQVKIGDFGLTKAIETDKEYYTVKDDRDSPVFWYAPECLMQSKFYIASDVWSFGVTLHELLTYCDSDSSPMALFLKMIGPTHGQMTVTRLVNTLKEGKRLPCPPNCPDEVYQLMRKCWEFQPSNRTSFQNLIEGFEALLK

For `CN(C)C/C=C/C(=O)N1CC(C(C)(C)Oc2cc(-c3ccc(O)c(Cl)c3)cc3[nH]ncc23)C1` [Compound 3, (E)-1-(3-(2-((6-(3-chloro-4-hydroxyphenyl)-1H-indazol-4-yl)oxy)propan-2-yl)azetidin-1-yl)-4-(dimethylamino)but-2-en-1-one], at JAK1, the Ki is greater than 100 nM. In series [1], the Kp is greater than 1250. At JAK3, the Ki is 0.1 to 1 nM and the “JAK3 (pKi)-JAK1 (pKi)” value is given as “A (a value of 3 or above)”.
For `CN(C)C/C=C/C(=O)N1CC(COc2cc(-c3ccc(O)c(F)c3)cc3[nH]ncc23)C1` [Compound 5, (E)-4-(dimethylamino)-1-(3-(((6-(3-fluoro-4-hydroxyphenyl)-1H-indazol-4-yl)oxy)methyl)azetidin-1-yl)but-2-en-1-one], the Ki at JAK1 was greater than 100 nM. Further, the Kp in series [1] was greater than 200. On JAK3, the Ki was less than 0.1 nM and the “JAK3 (pKi)-JAK1 (pKi)” value is “A (a value of 3 or above)”.
The corresponding values for `C=CC(=O)N1CCO[C@@H](C(=O)Nc2cc(-c3ccc(O)cc3)cc3[nH]ncc23)C1` [Compound 6, (R)-4-acryloyl-N-(6-(4-hydroxyphenyl)-1H-indazol-4-yl)morpholine-2-carboxamide] are greater than 100 nM, greater than 1250, less than 0.1 nM and “A (a value of 3 or above)”.
The corresponding values for `C=CC(=O)N1CC(C)(COc2nc(-c3ccc(O)c(F)c3)nc3[nH]ncc23)C1` [Compound 21, 1-(3-(((6-(3-fluoro-4-hydroxyphenyl)-1H-pyrazolo[3,4-d]pyrimidin-4-yl)oxy)methyl)-3-methylazetidin-1-yl)prop-2-en-1-one] are greater than 100 nM, greater than 1250, less than 0.1 nM and “A (a value of 3 or above)”.
The corresponding values for `CN(C)C/C=C/C(=O)N1CC(COc2cc(-c3ccc(O)cc3)cc3[nH]ncc23)C1` [Compound 1, (E)-4-(dimethylamino)-1-(3-(((6-(4-hydroxyphenyl)-1H-indazol-4-yl)oxy)methyl)azetidin-1-yl)but-2-en-1-one] are greater than 100 nM, greater than 1250, less than 0.1 nM and “A (a value of 3 or above)”.
In the case of `C=CC(=O)N1CC(COc2nc(-c3ccc(O)cc3)nc3[nH]ncc23)C1` [Compound 4, 1-(3-(((6-(4-hydroxyphenyl)-1H-pyrazolo[3,4-d]pyrimidin-4-yl)oxy)methyl)azetidin-1-yl)prop-2-en-1-one], the Ki on JAK1 was greater than 100 nM. In addition, the Kp in series [1] is greater than 1250. Moreover, on JAK3, the Ki is less than 0.1 nM and the “JAK3 (pKi)-JAK1 (pKi)” value is given as “A (a value of 3 or above)”.
Turning to `C=CC(=O)N1CC[C@H](COc2cc(-c3ccc(O)cc3)cc3[nH]ncc23)C1` [Compound 7, (S)-1-(3-(((6-(4-hydroxyphenyl)-1H-indazol-4-yl)oxy)methyl)pyrrolidin-1-yl)prop-2-en-1-one], the Ki at JAK1 is greater than 100 nM; at JAK3 it was 0.1 to 1 nM. In addition, the Kp in series [1] was greater than 1250. For the same molecule, the “JAK3 (pKi)-JAK1 (pKi)” value on JAK3 is on record as “A (a value of 3 or above)”.
The corresponding values for `CN(C)C/C=C/C(=O)N1CCC(C)(Oc2cc(-c3ccc(O)cc3)cc3[nH]ncc23)CC1` [Compound 9, (E)-4-(dimethylamino)-1-(4-((6-(4-hydroxyphenyl)-1H-indazol-4-yl)oxy)-4-methylpiperidin-1-yl)but-2-en-1-one] are greater than 100 nM, 0.1 to 1 nM, greater than 200 and “A (a value of 3 or above)”.
On to `C=CC(=O)N1CC(CC)(COc2cc(-c3ccc(O)cc3)nc3[nH]ncc23)C1` [Compound 22, 1-(3-ethyl-3-(((6-(4-hydroxyphenyl)-1H-pyrazolo[3,4-b]pyridin-4-yl)oxy)methyl)azetidin-1-yl)prop-2-en-1-one], for which the Ki at JAK1 was greater than 100 nM. Also, the Kp in series [1] was greater than 1250. In addition, on JAK3, the Ki was less than 0.1 nM and the “JAK3 (pKi)-JAK1 (pKi)” value is “A (a value of 3 or above)”.
As to `C=CC(=O)N1CC(C(C)(C)Oc2cc(-c3ccc(O)cc3)nc3[nH]ncc23)C1` [Compound 20, 1-(3-(2-((6-(4-hydroxyphenyl)-1H-pyrazolo[3,4-b]pyridin-4-yl)oxy)propan-2-yl)azetidin-1-yl)prop-2-en-1-one], the Ki at JAK1 is greater than 100 nM. For the same molecule, the Kp in series [1] was greater than 200. Moreover, on JAK3, the Ki is less than 0.1 nM and the “JAK3 (pKi)-JAK1 (pKi)” value was “A (a value of 3 or above)”.
In the case of `CN(C)C/C=C/C(=O)N1CC(C#N)(COc2cc(-c3ccc(O)c(F)c3)cc3[nH]ncc23)C1` [Compound 8, (E)-1-(4-(dimethylamino)but-2-enoyl)-3-(((6-(3-fluoro-4-hydroxyphenyl)-1Hindazol-4-yl)oxy)methyl)azetidine-3-carbonitrile], the Ki on JAK1 was greater than 100 nM. Moreover, in series [1], the Kp is greater than 1250. At JAK3, the Ki was less than 0.1 nM and the “JAK3 (pKi)-JAK1 (pKi)” value is reported as “A (a value of 3 or above)”.
With `C=CC(=O)N1CC[C@H](Oc2cc(-c3ccc(O)c(Cl)c3)cc3[nH]ncc23)C1` [Compound 2, (S)-1-(3-((6-(3-chloro-4-hydroxyphenyl)-1H-indazol-4-yl)oxy)pyrrolidin-1-yl)prop-2-en-1-one], the Ki at JAK1 was greater than 100 nM. Moreover, the Kp in series [1] was greater than 1250. Besides, at JAK3, the Ki is less than 0.1 nM and the “JAK3 (pKi)-JAK1 (pKi)” value was “A (a value of 3 or above)”.
